Measured values as given in ChEMBL document CHEMBL1201862, “PubChem BioAssay data set” (2004).
Counter-ions that a name gives are not always drawn. Calls of active or inactive are those of the source.

Legend:
[1] = NIH-3T3 fibroblast cytotoxicity, dose response, cytotoxicity control, cell-based, fluorescence, Alamar Blue, secondary assay (AID 2327); type: functional;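 further: NIH-3T3 mouse fibroblasts cultured with fluconazole at 8 µg/mL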
[2] = viability loss of HPDE-C7K cells – cell-based, fluorescence, HTS, primary screen (AID 431); type: functional; conditions: Homo sapiens
[3] = target: Serine/threonine-protein phosphatase (Homo sapiens, UniProt Q9BPW0); experiment: Counterscreen for inhibitors of PP1: fluorescence-based biochemical high throughput dose response assay to identify inhibitors of Protein Phosphatase 5 (PP5). [Related pubchem assays: 2034 (Summary (PP5 inhibitors)), 1987 (PP5 inhibitors in singlate), 2235 (PP1 inhibitors in singlate)]
[4] = fluconazole-exposed Candida albicans growth modulators – fluorescence, retest, confirmation (AID 2467); type: functional, cell-based
[5] = HPDE-C7 pancreatic duct cell viability loss – fluorescence, HTS (AID 430); type: functional, cell-based; conditions: Homo sapiens
[6] = target: Serine/threonine-protein phosphatase PP1-alpha catalytic subunit (Homo sapiens, UniProt P62136); experiment: inhibition of protein phosphatase 1 activity – biochemical, fluorescence, dose response (AID 2403);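 further: phosphatase turnover of OMFP into fluorescent 3-O-methylfluorescein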
[7] = target: T1, Heat shock factor protein 1 (Mus musculus, UniProt P38532); experiment: enhancement of HSF1-driven luciferase signal – cell-based, NIH3T3, luminescence, dose retest, confirmation (AID 435004); type: functional;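 further: stress induced by proteasome inhibitor MG132 added 30 min after compound; luciferase reporter driven by HSF1 response element in NIH3T3 cells; actives raise luminescence as potentiators of the MG132 stress response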
T1 sequence (P38532 whole entry): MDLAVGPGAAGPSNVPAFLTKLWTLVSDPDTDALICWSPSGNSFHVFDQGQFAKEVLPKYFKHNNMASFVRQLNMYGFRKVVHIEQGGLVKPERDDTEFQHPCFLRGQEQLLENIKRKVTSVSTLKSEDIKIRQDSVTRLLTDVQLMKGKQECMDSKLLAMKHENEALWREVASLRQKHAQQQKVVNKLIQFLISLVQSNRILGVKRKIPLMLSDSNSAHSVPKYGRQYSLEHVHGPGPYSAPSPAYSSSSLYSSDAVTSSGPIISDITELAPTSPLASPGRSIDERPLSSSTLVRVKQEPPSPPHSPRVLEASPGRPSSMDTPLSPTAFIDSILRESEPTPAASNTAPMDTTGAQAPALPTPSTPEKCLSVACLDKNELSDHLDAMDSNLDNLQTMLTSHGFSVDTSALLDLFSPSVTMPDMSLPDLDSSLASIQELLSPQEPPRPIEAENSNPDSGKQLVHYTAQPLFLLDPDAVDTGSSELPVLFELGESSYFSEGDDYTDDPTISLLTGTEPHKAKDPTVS

Estrogen receptor beta = Estrogen receptor beta (Homo sapiens, UniProt Q92731); experiment: blockers of SRC-3 recruitment to ERβ – biochemical, ELISA, streptavidin-HRP readout, orthogonal assay, confirmation (AID 1060)
[8] = target: T2, Mannose-6-phosphate isomerase (Homo sapiens, UniProt P34949); experiment: MPI inhibition at elevated mannose 6-phosphate – biochemical, fluorescence intensity, high mannose 6-phosphate, primary screen (AID 1220)
T2 sequence (P34949 whole entry): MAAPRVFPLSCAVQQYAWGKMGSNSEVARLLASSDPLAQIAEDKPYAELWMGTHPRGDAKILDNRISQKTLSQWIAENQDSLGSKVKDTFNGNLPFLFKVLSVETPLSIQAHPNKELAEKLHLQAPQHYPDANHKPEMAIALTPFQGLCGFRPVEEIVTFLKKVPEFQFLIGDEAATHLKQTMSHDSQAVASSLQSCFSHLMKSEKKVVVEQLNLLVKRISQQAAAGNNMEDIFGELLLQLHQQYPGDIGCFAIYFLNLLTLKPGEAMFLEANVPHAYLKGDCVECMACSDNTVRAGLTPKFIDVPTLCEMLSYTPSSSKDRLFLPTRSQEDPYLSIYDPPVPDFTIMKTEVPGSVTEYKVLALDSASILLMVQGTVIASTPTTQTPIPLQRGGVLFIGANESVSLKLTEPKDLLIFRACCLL

[9] = HEK-293T cell viability reduction – luminescence, B-cell screen hits, cytotoxicity control for BCR NF-kB inhibitor project, dose response (AID 489021); type: functional, cell-based;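 further: HEK-293T cells carrying an NF-kB luciferase reporter; cells exposed to compound for about 14 hours before viability readout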
[10] = target: G2/mitotic-specific cyclin-B1 (Homo sapiens, UniProt P14635); experiment: HeLa cell cycle G2/M accumulation – FACS, mechanism study for Wee1 degradation inhibitor project, late-stage follow-up, panel member Cyclin B Degradation (AID 2088)
Wee1-like protein kinase = Wee1-like protein kinase (Homo sapiens, UniProt P30291); experiment: HeLa cell cycle G2/M accumulation – FACS, mechanism study for Wee1 degradation inhibitor project, late-stage follow-up, panel member Wee1 Degradation (AID 2088)
[11] = target: T3, Neuropeptides B/W receptor type 1 (Homo sapiens, UniProt P48145); experiment: human NPBW1 receptor blockade, IC50 – cell-based, fluorescence, dose response, late-stage follow-up (AID 463251); type: functional
T3 sequence (P48145 whole entry): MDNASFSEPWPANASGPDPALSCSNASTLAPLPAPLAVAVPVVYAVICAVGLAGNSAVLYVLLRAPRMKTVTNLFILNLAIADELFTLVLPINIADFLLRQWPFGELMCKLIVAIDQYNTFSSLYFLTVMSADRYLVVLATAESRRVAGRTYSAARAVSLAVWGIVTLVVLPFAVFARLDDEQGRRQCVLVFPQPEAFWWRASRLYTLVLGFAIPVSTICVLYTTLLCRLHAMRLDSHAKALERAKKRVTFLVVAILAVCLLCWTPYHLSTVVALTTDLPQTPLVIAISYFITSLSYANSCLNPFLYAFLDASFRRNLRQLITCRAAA

[12] = target: Melanin-concentrating hormone receptor 1 (Homo sapiens, UniProt Q99705); experiment: Late-stage fluorescence-based counterscreen for antagonists of the G-protein coupled receptor 7 (GPR7): cell-based dose response assay to identify antagonists of the melanin-concentrating hormone receptor 1 (MCHR1). [Related pubchem assays (depositor defined):AID1861, AID1880, AID1952, AID2148, AID2251, AID2257, AID485339]; type: functional;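 further: stimulated with 30 nM MCH peptide agonist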
[13] = target: Eukaryotic translation initiation factor 4E (Mus musculus, UniProt P63073); experiment: blockers of eIF4G binding by eIF4E – biochemical, TR-FRET, dose response (AID 855); type: functional;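 further: potency for disrupting eIF4E binding to eIF4GI seen as loss of FRET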
Beta-galactosidase = Beta-galactosidase (Escherichia coli, UniProt Q8VNN2); type: functional
Beta-galactosidase, sequence (Q8VNN2 whole entry): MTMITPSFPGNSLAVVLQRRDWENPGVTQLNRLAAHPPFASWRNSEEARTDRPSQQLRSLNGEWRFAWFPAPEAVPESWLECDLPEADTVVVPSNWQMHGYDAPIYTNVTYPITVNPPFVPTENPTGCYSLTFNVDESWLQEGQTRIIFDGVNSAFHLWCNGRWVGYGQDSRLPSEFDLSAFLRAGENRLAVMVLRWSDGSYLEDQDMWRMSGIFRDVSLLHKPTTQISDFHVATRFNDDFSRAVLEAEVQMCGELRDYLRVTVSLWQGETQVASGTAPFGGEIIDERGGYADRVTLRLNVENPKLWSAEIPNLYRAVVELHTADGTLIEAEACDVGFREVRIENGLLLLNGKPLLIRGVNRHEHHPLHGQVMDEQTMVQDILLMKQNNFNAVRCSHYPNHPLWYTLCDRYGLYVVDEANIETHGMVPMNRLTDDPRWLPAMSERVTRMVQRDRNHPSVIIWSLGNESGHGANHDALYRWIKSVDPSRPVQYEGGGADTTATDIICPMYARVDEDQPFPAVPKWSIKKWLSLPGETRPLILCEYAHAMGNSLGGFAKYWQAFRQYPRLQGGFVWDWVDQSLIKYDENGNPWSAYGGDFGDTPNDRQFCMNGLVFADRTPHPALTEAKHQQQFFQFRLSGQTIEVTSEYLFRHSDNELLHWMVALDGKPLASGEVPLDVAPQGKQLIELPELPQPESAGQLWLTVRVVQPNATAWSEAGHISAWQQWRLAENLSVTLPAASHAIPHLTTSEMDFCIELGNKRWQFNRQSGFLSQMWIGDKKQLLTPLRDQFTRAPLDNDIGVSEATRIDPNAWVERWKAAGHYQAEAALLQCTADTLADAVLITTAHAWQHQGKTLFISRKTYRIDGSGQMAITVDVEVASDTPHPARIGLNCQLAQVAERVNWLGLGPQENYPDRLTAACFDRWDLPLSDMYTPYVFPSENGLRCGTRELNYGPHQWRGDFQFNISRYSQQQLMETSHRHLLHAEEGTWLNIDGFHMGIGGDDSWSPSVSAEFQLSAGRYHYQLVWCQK

Melanin-concentrating hormone receptor 1, sequence (Q99705 whole entry): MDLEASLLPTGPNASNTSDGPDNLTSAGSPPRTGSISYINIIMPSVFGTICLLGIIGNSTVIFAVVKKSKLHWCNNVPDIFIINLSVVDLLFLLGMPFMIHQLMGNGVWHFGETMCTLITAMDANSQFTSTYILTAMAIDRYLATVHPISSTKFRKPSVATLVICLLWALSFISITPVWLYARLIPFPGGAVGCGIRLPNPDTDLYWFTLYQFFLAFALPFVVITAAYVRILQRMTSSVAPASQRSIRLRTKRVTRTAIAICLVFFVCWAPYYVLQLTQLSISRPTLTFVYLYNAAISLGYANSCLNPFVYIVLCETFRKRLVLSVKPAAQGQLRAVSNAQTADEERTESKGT
G2/mitotic-specific cyclin-B1, sequence (P14635 whole entry): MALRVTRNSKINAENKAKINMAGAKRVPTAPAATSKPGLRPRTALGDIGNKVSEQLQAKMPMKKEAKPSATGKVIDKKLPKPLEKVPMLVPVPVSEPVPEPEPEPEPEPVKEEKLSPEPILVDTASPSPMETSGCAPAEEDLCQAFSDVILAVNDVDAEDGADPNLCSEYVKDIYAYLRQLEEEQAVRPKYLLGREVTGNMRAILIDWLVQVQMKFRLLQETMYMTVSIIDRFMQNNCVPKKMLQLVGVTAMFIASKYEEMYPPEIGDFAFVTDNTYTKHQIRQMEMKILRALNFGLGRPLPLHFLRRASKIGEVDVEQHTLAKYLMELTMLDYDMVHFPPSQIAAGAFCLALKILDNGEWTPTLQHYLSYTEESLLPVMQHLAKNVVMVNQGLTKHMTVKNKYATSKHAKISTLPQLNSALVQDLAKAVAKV
Wee1-like protein kinase, sequence (P30291 whole entry): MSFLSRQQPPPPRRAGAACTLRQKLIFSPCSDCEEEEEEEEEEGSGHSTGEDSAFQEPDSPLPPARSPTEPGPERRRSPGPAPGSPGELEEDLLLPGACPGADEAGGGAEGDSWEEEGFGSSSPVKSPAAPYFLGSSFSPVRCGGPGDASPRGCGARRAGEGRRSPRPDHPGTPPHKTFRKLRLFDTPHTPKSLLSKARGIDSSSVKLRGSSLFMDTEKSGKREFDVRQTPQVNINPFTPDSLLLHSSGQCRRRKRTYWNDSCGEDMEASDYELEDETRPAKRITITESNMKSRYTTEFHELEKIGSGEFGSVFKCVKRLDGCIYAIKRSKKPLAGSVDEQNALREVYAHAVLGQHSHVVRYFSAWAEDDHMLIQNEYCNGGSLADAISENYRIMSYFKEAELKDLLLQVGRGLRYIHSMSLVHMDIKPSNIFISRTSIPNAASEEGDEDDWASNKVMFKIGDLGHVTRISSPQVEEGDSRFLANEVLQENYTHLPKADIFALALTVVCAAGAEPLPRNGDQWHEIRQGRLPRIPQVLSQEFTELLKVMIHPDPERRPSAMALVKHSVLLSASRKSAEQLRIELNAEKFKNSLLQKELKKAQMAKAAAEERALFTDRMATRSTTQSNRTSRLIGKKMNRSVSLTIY
Serine/threonine-protein phosphatase, sequence (Q9BPW0 whole entry): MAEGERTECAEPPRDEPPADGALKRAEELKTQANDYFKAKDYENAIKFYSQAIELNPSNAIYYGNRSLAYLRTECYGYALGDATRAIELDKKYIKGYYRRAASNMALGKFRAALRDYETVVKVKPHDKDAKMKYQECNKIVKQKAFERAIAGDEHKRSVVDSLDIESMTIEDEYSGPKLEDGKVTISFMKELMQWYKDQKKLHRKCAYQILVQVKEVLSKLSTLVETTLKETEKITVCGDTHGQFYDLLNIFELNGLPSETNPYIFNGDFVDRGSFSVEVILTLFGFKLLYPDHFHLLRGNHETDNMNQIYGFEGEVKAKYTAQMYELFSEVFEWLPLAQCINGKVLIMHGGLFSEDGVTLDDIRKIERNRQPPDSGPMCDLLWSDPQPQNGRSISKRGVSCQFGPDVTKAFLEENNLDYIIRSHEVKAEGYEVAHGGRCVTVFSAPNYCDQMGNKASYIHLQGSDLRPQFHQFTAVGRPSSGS
Estrogen receptor beta, sequence (Q92731 whole entry): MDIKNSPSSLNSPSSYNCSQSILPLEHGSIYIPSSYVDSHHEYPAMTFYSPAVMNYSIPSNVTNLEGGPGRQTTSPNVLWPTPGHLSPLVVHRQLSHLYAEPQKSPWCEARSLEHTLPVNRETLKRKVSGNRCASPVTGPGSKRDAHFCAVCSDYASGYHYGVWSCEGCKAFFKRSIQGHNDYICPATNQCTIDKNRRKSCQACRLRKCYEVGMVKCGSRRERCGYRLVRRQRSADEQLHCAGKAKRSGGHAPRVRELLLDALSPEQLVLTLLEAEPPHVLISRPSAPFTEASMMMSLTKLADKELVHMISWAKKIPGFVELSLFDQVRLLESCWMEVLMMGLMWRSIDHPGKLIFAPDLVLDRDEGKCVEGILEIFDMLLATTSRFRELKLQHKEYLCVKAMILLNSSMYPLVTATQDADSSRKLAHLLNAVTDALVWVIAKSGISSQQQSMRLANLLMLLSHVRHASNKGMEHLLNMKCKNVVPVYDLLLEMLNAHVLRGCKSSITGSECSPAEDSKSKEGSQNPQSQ
Eukaryotic translation initiation factor 4E, sequence (P63073 whole entry): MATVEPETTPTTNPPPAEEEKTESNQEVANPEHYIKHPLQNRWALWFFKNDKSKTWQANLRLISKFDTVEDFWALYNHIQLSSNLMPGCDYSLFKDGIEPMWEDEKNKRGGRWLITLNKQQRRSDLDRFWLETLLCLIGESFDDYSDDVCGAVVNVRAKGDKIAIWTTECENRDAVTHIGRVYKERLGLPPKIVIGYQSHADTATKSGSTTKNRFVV
Serine/threonine-protein phosphatase PP1-alpha catalytic subunit, sequence (P62136 whole entry): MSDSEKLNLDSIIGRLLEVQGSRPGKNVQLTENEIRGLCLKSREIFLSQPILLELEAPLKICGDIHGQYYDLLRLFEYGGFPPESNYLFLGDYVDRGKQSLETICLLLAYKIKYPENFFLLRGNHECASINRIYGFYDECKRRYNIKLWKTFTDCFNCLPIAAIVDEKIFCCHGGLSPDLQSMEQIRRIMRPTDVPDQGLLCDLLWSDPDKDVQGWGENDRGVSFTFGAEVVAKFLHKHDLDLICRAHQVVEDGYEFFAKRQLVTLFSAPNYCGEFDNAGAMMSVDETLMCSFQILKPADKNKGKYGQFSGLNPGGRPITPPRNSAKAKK

Oc1c(C(c2ccccn2)N2CCOCC2)ccc2cccnc12 (stereo unspecified)
EC50 [1]: > 150 µM (inactive) | EC50 [2]: > 20 µM (not active) | IC50 [3]: > 67 µM (not active) | EC50 [4]: > 38 µM (not active) | EC50 [5]: > 20 µM (not active) | IC50 [6]: 2.36 µM (active) | EC50 [7]: 74.8 µM (active) | IC50 (Estrogen receptor beta): > 50 µM (not active) | IC50 [8]: > 50 µM (not active)

O=C(CSCCO)Nc1ccc(C23C[C@H]4C[C@@H](C2)C[C@@H](C3)C4)cc1
IC50 [9]: > 80 µM (inactive)

Cc1cc(Br)ccc1NC(=O)CCCOc1cc(=O)n(C)c2ccccc12
EC50 [10]: > 49.7 µM (inactive) | EC50 (Wee1-like protein kinase): > 49.7 µM (inactive)

CCOc1ccc(CCOc2c(Cl)cnn(-c3ccc(C)cc3)c2=O)cc1OCC
IC50 [11]: 5.5 µM (active) | IC50 [12]: 14.5 µM (inactive)

O=C(/C=N/O)Nc1ccc(F)cc1
IC50 [13]: > 64 µM (inactive)

C=CCN1CC[C@]23c4c5ccc(O)c4O[C@H]2C(=O)CC[C@@]3(O)[C@H]1C5 [NALOXONE HYDROCHLORIDE]
EC50 (Beta-galactosidase): > 31.5 µM (inactive)
